# Reference: article PMC2922960 (Bioorganic & medicinal chemistry letters, 2009)
# Biological target: FTase (Homo sapiens, UniProt P49354+P49356)
# Assay: steady-state kinetic assay
# Type: biochemical, mammalian
# Settings: saturating FPP (10 μM), 0.2-10 μM dansylated peptide, 20-100 nM FTase, 50 mM HEPPSO pH 7.8, 5 mM TCEP, 5 mM MgCl2, 25 °C; fluorescence λex 340 nm, λem 520 nm
row,Substance,kcat/KM [M⁻¹ s⁻¹]
1,CAIL,27000 ± 2000
2,CCVL,7000 ± 1000
3,CIIL,43000 ± 8000
4,CILL,8000 ± 2000
5,CNIL,12000 ± 900
6,CSIL,5000 ± 1000
7,CTIL,33000 ± 7000
8,DnGCCIL,23000 ± 3000
9,DnGCLML,8100 ± 500
10,DnGCVIL,47000 ± 8000

# Tested on: FTase
# Assay: not given
# Settings: single turnover conditions; cited from earlier work
row,Substance,FTase substrate activity under single turnover conditions
1,DnTKCVIL,FTase substrate

# Same assay, conditions: steady-state conditions; cited from earlier work
row,Substance,FTase turnover under steady-state conditions
1,DnTKCVIL,did not exhibit efficient turnover

# Biological target: T1, recombinant mammalian FTase (Homo sapiens, UniProt P49354+P49356)
# Assay: continuous spectrofluorimetric assay of FTase substrate activity
# Type: biochemical
# Settings: from fluorescence screen and HPLC confirmation
row,Substance,FTase substrate ability (category in words)
1,CKVL,relatively modest FTase substrates
2,CLIL,confirmed substrates
3,CLLL,poor FTase substrate
4,CPIL,confirmed substrates
5,CVLL,relatively modest FTase substrates
6,DnGCCIL,efficient FTase substrate
7,DnGCLML,good FTase substrate

# Biological target: T1, recombinant mammalian FTase
# Assay: HPLC analysis of farnesylated peptide product formation
# Type: biochemical
# Settings: after 15 minutes; 3 μM peptide, 9 μM FPP, 0.05 μM FTase
row,Substance,turnover to farnesylated product
1,DnGCVLS [reference compound],complete turnover

# Same assay, conditions: after 60 min incubation with FTase; 3 μM peptide, 9 μM FPP, 0.05 μM FTase
row,Substance,HPLC: formation of farnesylated peptide product
1,CAIL,+++
2,CALL,+ (25% to 50% conversion to product)
3,CAYL,− −
4,CCLL,+ (25% to 50% conversion to product)
5,CCSL,− −
6,CCVL,+++
7,CEKL,− −
8,CGCL,− −
9,CGGL,− −
10,CGQL,− −
11,CHAL,− −
12,CHPL,− −
13,CIIL,+++
14,CILL,++
15,CKVL,+ (25% to 50% conversion to product)
16,CLGL,− −
17,CLIL,++
18,CLLL,+ (25% to 50% conversion to product)
19,CLQL,− (less than 25% conversion)
20,CLVL,+ (25% to 50% conversion to product)
21,CMEL,− −

row,Substance,HPLC: formation of farnesylated peptide product
1,CNIL,++
2,CNPL,− −
3,CPIL,+ (25% to 50% conversion to product)
4,CQLL,− (less than 25% conversion)
5,CQNL,− −
6,CRLL,+ (25% to 50% conversion to product)
7,CSFL,− −
8,CSIL,+++
9,CSLL,− (less than 25% conversion)
10,CSQL,− −
11,CSTL,− −
12,CSVL,+ (25% to 50% conversion to product)
13,CTAL,− −
14,CTIL,++
15,CTLL,+ (25% to 50% conversion to product)
16,CVGL,− −
17,CVLL,+ (25% to 50% conversion to product)
18,DnGCCIL,+++
19,DnGCLML,++
20,DnGCVIL,+++
